Measured values published in PubChem BioAssay (NCI).
Where “and” joins values, the source holds several entries; their conditions need not be identical. Equal values may be shown once.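 Cultured in 96-well plates, cells were exposed to test compound for 48 hours across five concentrations. GI50 is the concentration that inhibits growth by half. TGI: total growth inhibition.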

Key:
Test in all cases: NCI-60 cell line screen, 48 h
[1] = system: OVCAR-8 ovarian
[2] = system: EKVX NSCLC
[3] = system: HCC-2998 colon
[4] = system: HOP-92 NSCLC
[5] = system: SK-MEL-28 melanoma
[6] = system: HOP-62 NSCLC
[7] = system: MDA-MB-435
[8] = system: NCI-H460 lung
[9] = system: DU-145 prostate
[10] = system: UACC-62 melanoma

Row | Compound | TGI [1] [µM] | TGI [2] [µM] | TGI [3] [µM] | TGI [4] [µM] | TGI [5] [µM] | TGI [6] [µM] | TGI [7] [µM] | TGI [8] | TGI [9] [µM] | TGI [10] [µM] | GI50 [10] [µM] | GI50 [4] [µM] | GI50 [1] [µM] | GI50 [2] [µM] | GI50 [3] [µM] | GI50 [5] [µM] | GI50 [6] [µM] | GI50 [7] [µM] | GI50 [8] [µM] | GI50 [9] [µM]
1 | CC1=NN(c2cccc(Cl)c2)C2(SCC(=O)N2c2nc3ccccc3s2)/C1=C\c1cccs1 (centres undefined) | 51.8 | 38.4 | 37.1 | 53.6 | 85.6 | > 100 | > 100 | 69.1 µM | > 100 |  |  |  |  |  |  |  |  |  |  | 
2 | CCn1c(-c2ccc(N=NNc3ccc(-c4n[nH]c(=S)n4CC)cc3)cc2)n[nH]c1=S | 6.96 | 75.4 |  | 7.71 | > 100 | 8.03 |  |  | 8.17 |  |  |  |  |  |  |  |  |  |  | 
3 | O=C(O)C1C2CCC(O2)C1C(=O)Nc1cccc2cccnc12 (centres undefined) |  | > 100 | > 100 |  | > 100 | > 100 | > 100 | > 100 µM | > 100 | > 100 |  |  |  |  |  |  |  |  |  | 
4 | NCCCCc1cc(O)c2c(c1O)C(=O)c1ccccc1C2=O | 16.3 | 33.5 | 28 | 31.1 | 33.6 | 21.3 | 43.6 | 26.6 µM | 26.8 | 32.6 |  |  |  |  |  |  |  |  |  | 
5 | CC1=CC(=O)c2ccccc2C1=O | 22.7 | 31.8 | 30.7 | 2.94 | 16.6 | 29.8 | 3.81 | 24.5 µM | 29.4 | 10.3 |  |  |  |  |  |  |  |  |  | 
6 | COc1cc2c(ccc3c4cc(OC)c(OC)cc4c[n+](C)c23)cc1O | 62 | > 71.5 | 75 | > 75 | > 75 | 21 |  | > 75 µM |  | 11.5 |  |  |  |  |  |  |  |  |  | 
7 | O=C(OCN1C(=O)C2C3C=CC(C2C1=O)C1C2C(=O)N(COC(=O)C4CCCN4)C(=O)C2C31)C1CCCN1 (centres undefined) | 67.5 | > 100 | > 100 | > 100 | > 100 | > 100 |  | > 56.5 µM |  | > 100 |  |  |  |  |  |  |  |  |  | 
8 | C[C@H](CCC(=O)O)[C@H]1CC[C@@]2(C)[C@@H]3C(=O)C[C@H]4C(C)(C)[C@@H](O)CC[C@]4(C)[C@H]3C(=O)C[C@]12C | > 100 | > 100 | > 100 | > 100 | > 100 | > 100 | > 100 | > 100 µM | > 100 | > 100 |  |  |  |  |  |  |  |  |  | 
9 | CCN(CC(=O)O)C(=O)c1cccnc1 | > 100 | > 100 | > 100 | > 100 | > 100 | > 100 | > 100 | > 100 µM | > 100 | > 100 |  |  |  |  |  |  |  |  |  | 
10 | Fc1ccc(C(OCCN2CCC3CCC(C2)N3C/C=C/c2ccco2)c2ccc(F)cc2)cc1 (centres undefined) | 19.6 |  | 18.4 | 19.1 | 19.5 | 36.5 | 26.5 | 24.5 µM | 34.6 | 26.7 |  |  |  |  |  |  |  |  |  | 
11 | O=c1[nH]nc(NNc2ccccc2)c2nnn(C3CCCCC3)c12 | > 100 | > 100 | > 100 | > 100 | > 100 | > 100 | > 100 | > 100 µM | > 100 |  |  |  |  |  |  |  |  |  |  | 
12 | CCCNC(=O)CCC(C)C1CCC2C3C(C[C@H](OC(C)=O)[C@]12C)[C@@]1(C)CCC2(C[C@H]1C[C@H]3OC(C)=O)OOC1(CC[C@]3(C)C4C[C@H](OC(C)=O)[C@]5(C)C(C(C)CCC(=O)NCCC)CCC5C4[C@H](OC(C)=O)C[C@@H]3C1)OO2 (some centres undefined) | > 93.9 | > 100 | > 100 | > 68.4 | > 100 | > 100 | > 100 | > 100 µM | > 100 | > 100 | > 67 | 7.51 |  |  |  |  |  |  |  | 
13 | COc1ccc(C(=O)/C=C/c2cccc([N+](=O)[O-])c2)c(OC)c1 | > 50 | > 50 | > 50 | > 50 | > 50 | > 50 | > 50 | 3.31 µM | > 50 | 2.79 | 1.14 | 3.92 | 1.78 | > 50 | 2.27 | 4.75 | 1.8 | 1.76 | 1.27 | 1.75
14 | Cc1nn(-c2ccccc2)c(C)c1/C=N/N=C1\SCC(=O)N1c1ccccc1 | 55.1 | 47.1 | 52.8 |  | 67.9 | 86.8 | 55.3 | 60.2 µM | > 100 | 68.3 |  |  |  |  |  |  |  |  |  | 
15 | Clc1cc2c(cc1Cl)CC(NCCN1CCCC1)CC2 (centres undefined) | 31.1 | 38.7 | 8.02 |  | 29.9 | 30.7 | 14.4 | 31.2 µM | 27.8 | 8.15 |  |  |  |  |  |  |  |  |  | 
16 | C(=N\NC1=NCCN1)/c1ccc(-c2cn3cc(/C=N/NC4=NCCN4)ccc3n2)cc1 | > 55 | > 92.4 | > 100 | 43.2 |  |  | > 79.7 | > 45.8 µM | 37.7 | > 100 |  |  |  |  |  |  |  |  |  | 
17 | O=C(/C=C/c1ccccc1)NNC(=O)c1c(Cl)c(Cl)c(Cl)c(Cl)c1-c1nc2ccccc2[nH]1 | > 100 | > 100 | 65.9 | 45.7 | > 100 | 56.5 | > 100 | 61 µM | > 100 | > 100 |  |  |  |  |  |  |  |  |  | 

Row | Compound | TGI [1] [µM] | TGI [2] [µM] | TGI [3] [µM] | TGI [4] [µM] | TGI [5] [µM] | TGI [6] [µM] | TGI [7] [µM] | TGI [8] | TGI [9] [µM] | TGI [10] [µM] | GI50 [10] [µM] | GI50 [4] [µM] | GI50 [1] [µM] | GI50 [2] [µM] | GI50 [3] [µM] | GI50 [5] [µM] | GI50 [6] [µM] | GI50 [7] [µM] | GI50 [8] [µM] | GI50 [9] [µM]
18 | NCCSC(c1ccccc1)c1ccccc1 | 44 | 70.1 |  | 37.2 | 35.7 | 33.7 | 33.8 | 29.3 µM | 93.5 | 31.3 |  |  |  |  |  |  |  |  |  | 
19 | Nc1nc(SCCc2ccccc2)nc2nc3c(c(-c4ccccc4)c12)CCCC3 | > 100 | > 100 |  |  | > 100 | > 100 | > 100 | > 100 µM | > 100 | > 100 |  |  |  |  |  |  |  |  |  | 
20 | CCOC(=O)C1=NN(c2ccc(C)cc2)C2=CC(C)=NN(C)C(=S)N21 | > 100 | > 100 | > 100 |  | > 100 |  | > 100 | > 100 µM | > 100 | > 100 |  |  |  |  |  |  |  |  |  | 
21 | CCOC(=O)C(NC(=O)c1ccco1)(Nc1nc2ccc(OCC)cc2s1)C(F)(F)F (centres undefined) | > 100 | > 100 | > 100 | 47.5 | > 100 |  | 80.2 | > 100 µM | > 100 | > 100 |  |  |  |  |  |  |  |  |  | 
22 | O=C(c1cccs1)N(C(=S)OC12CC3CC(CC(C3)C1)C2)c1ccccc1 | > 100 | 55.6 | > 100 | > 100 | > 100 | > 100 | > 100 | > 100 µM | > 100 | 84.8 |  |  |  |  |  |  |  |  |  | 
23 | COc1ccc2c(c1)[nH]c1c(/C=C/c3ccccc3)nccc12 | 42.2 | 29.6 | 29.9 | 44.4 | 31.9 | 41.4 | 49 | 33.7 µM | 51.8 | 28.9 |  |  |  |  |  |  |  |  |  | 
24 | CC12CC3OC(=O)C1COC14OC5(C2C1=O)C(O)(CCC1C4CC(O)C2(O)CC=CC(=O)C12C)C(=O)OC35C (centres undefined) | > 100 | > 100 | > 100 | > 100 | > 100 |  | > 100 | > 100 µM | > 100 | > 100 |  |  |  |  |  |  |  |  |  | 
25 | CC1CC[C@@]2(OC1)OC1C[C@H]3[C@@H]4CC=C5CC(OC6OC(CO)C(OC7OC(CO)C(O)C(OC8OCC(O)C(O)C8O)C7OC7OC(CO)C(O)C(O)C7O)C(O)C6O)CCC5(C)[C@H]4CCC3(C)C1[C@@H]2C (some centres undefined) | 8.95 | 9.01 | 8.63 | > 25 | > 25 | 9.32 | 13.4 | 11.8 µM | 9.48 | > 25 |  |  |  |  |  |  |  |  |  | 
26 | Cc1ccccc1C(=O)N/N=C/c1ccc(Sc2nccn2C)c([N+](=O)[O-])c1 | > 100 | > 100 | > 100 | 88.2 | > 100 | > 100 | 81.1 | > 100 µM | > 100 | > 100 |  |  |  |  |  |  |  |  |  | 
27 | [N-]=[N+]=CC(=O)c1ccccc1C#CCCc1ccccc1 | > 100 | 75.5 | > 100 | 63.6 | > 100 | > 100 |  | > 100 µM |  | 69.8 |  |  |  |  |  |  |  |  |  | 
28 | Cc1c(N2C(=O)CS(=O)(=O)C2c2cccc(Oc3ccccc3)c2)c(=O)n(-c2ccccc2)n1C (centres undefined) | > 100 | > 100 |  | > 100 | > 100 | > 100 | > 100 | > 100 µM | > 100 | > 100 |  |  |  |  |  |  |  |  |  | 
29 | O=C(C[n+]1ccc2ccccc2c1)c1ccc2ccc3ccccc3c2c1 | 19.8 | 19.3 | 3.37 | 18.8 | 9.08 | 21.1 | 7.75 | 5.85 µM | 21.3 | 9.72 |  |  |  |  |  |  |  |  |  | 
30 | COc1nc(C#CC2(O)CCCCC2)nc(OC)n1 | 39.8 | 35.6 |  |  | 30.2 | 91 | 18.8 | 78.6 µM | 19.6 | 20.2 |  |  |  |  |  |  |  |  |  | 
31 | CCCCCCCCC/C=C/C=C/C(=O)NCC(=O)NC1C(O)C(O)C(Nc2ncnc3nc[nH]c23)OC1C(O)CO (centres undefined) | 0.077 |  |  |  | 3.25 |  | 0.256 | 1.23 µM and 0.321 µM |  | 0.0171 |  |  | 0.00555 |  |  |  | 0.0011 |  | 0.00278 | 0.00477
32 | CNC(=O)OCc1c(CO)nc(SC)n1C | > 100 | > 100 | > 100 | > 100 | > 100 | > 100 |  | > 100 µM |  | > 100 |  |  |  |  |  |  |  |  |  | 
33 | CC(=O)C1=C(C)N(c2ccc(C)cc2)C2(O)C=CC(=O)C3C(=O)N(c4ccccc4)C(=O)C132 (centres undefined) | 59.2 | 95.5 | 52.3 | 43.1 | 43.8 | > 100 | > 100 | > 100 µM | 74.3 | 35.6 |  |  |  |  |  |  |  |  |  | 
34 | CCC1CN(C(=O)c2ccccc2)C(Cc2c[nH]c3ccccc23)C(=O)C1CC(=O)OC (centres undefined) | > 100 | > 100 |  | > 100 | > 100 | > 100 | > 100 | > 100 µM | > 100 | > 100 |  |  |  |  |  |  |  |  |  | 
